Assay results as given in ChEMBL document CHEMBL4665653, “VU6005806/AZN-00016130, an advanced M positive allosteric modulator (PAM) profiled as a potential preclinical development candidate” (Bioorg Med Chem Lett, 2019).
Activity calls are given as the source filed them. The calls are words filed in the database; no cut-off is given here.

Legend:
[1] = biological target: T1, Muscarinic acetylcholine receptor M1 (Homo sapiens) (UniProt P11229); test: Positive allosteric modulation of human M1 receptor
T1 sequence (whole entry): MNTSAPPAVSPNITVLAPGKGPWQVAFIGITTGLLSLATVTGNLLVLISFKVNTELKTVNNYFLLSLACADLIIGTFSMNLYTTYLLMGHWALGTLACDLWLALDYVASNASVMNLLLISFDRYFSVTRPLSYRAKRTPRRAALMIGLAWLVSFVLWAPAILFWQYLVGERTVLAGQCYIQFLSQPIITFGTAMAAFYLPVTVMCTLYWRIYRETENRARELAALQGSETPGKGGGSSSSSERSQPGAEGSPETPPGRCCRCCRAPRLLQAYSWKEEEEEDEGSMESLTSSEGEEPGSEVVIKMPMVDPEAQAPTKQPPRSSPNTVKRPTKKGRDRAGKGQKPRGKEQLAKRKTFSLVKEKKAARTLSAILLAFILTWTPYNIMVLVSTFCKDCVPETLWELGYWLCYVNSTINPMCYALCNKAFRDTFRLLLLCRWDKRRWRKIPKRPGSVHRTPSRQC

[2] = biological target: T2, Muscarinic acetylcholine receptor M4 (Homo sapiens) (UniProt P08173); test: Positive allosteric modulation of human M4 receptor/Gqi5 in presence of EC20 acetylcholine by calcium mobilization assay relative to acetylcholine; type: functional; conditions: filed as positive allosteric modulator
T2 sequence (whole entry): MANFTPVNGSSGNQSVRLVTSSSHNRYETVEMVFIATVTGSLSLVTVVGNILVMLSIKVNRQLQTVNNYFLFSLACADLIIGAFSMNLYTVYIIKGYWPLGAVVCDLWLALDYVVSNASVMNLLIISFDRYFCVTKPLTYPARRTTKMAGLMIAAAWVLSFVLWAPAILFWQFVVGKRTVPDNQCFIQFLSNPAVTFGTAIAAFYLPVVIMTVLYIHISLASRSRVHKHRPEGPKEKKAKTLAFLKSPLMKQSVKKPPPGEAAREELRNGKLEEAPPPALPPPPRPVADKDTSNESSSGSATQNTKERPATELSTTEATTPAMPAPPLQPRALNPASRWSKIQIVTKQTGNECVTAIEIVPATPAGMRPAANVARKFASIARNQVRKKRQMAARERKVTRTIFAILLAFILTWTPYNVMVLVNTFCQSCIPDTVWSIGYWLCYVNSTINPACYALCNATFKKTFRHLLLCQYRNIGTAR

[3] = biological target: T3, Muscarinic acetylcholine receptor M4 (Homo sapiens, UniProt P08173); test: Positive allosteric modulation of human M4 receptor/Gqi5 in presence of EC20 acetylcholine by calcium mobilization assay; type: functional
T3 sequence (P08173 whole entry): T2 sequence (whole entry)

[4] = biological target: T4, Muscarinic acetylcholine receptor M2 (Homo sapiens, UniProt P08172); test: Positive allosteric modulation of human M2 receptor/Gqi5 in presence of EC20 acetylcholine by calcium mobilization assay
T4 sequence (P08172 whole entry): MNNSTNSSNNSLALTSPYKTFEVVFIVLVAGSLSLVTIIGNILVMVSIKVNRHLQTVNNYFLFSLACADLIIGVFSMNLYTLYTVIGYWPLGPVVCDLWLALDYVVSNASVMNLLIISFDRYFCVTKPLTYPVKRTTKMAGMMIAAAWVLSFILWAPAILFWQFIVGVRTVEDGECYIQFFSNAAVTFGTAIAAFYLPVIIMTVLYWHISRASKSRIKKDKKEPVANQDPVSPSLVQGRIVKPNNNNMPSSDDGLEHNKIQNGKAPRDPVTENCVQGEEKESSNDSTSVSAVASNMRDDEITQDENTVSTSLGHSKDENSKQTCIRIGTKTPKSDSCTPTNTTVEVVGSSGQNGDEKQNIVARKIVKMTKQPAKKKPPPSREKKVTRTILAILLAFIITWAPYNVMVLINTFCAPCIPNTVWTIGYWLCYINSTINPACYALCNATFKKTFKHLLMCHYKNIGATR

[5] = biological target: Muscarinic acetylcholine receptor M3 (Homo sapiens, UniProt P20309); test: Positive allosteric modulation of human M3 receptor
Chain of Muscarinic acetylcholine receptor M3 (P20309 whole entry, looked up): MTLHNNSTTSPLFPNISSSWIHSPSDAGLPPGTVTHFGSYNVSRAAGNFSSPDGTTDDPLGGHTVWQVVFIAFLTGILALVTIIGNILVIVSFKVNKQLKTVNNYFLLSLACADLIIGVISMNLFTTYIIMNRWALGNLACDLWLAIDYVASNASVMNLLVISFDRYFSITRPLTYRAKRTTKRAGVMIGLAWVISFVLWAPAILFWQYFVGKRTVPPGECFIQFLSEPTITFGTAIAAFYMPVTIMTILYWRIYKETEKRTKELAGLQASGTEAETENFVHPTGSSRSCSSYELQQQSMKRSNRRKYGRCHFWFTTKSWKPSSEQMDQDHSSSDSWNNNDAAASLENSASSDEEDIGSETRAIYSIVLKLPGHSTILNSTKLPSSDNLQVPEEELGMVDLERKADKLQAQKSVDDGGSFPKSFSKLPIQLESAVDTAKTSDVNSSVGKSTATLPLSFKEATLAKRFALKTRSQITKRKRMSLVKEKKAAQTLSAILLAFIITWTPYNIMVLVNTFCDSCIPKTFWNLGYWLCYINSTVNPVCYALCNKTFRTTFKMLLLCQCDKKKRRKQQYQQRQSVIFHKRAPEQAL

[6] = biological target: T5, Muscarinic acetylcholine receptor M5 (Homo sapiens) (UniProt P08912); test: Positive allosteric modulation of human M5 receptor
T5 sequence (whole entry): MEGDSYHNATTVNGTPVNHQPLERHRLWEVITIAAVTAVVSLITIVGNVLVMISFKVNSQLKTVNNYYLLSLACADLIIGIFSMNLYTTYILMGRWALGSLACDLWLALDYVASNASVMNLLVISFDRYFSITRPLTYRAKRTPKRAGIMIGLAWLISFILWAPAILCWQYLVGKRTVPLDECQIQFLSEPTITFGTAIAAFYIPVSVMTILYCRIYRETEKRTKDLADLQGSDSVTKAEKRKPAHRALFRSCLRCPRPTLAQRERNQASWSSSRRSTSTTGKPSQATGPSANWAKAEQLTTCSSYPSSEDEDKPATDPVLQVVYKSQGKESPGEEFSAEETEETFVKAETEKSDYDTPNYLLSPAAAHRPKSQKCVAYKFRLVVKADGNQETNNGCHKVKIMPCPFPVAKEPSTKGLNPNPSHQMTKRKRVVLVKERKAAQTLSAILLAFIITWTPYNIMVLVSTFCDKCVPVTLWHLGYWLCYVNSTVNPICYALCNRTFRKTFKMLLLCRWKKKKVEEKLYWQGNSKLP

[7] = Brain to plasma permeability coefficient, Kp in Sprague-Dawley rat at 0.1 to 0.2 mg/kg, iv measured after 0.25 hrs; type: ADME, organism-based; conditions: dose 0.1-0.2 mg/kg
[8] = Fraction unbound in rat brain; type: ADME, tissue-based
[9] = Fraction unbound in rat plasma; type: ADME, cell-free
[10] = Hepatic clearance in rat; type: ADME; conditions: in vivo
[11] = Fraction unbound in human plasma; type: ADME, cell-free
[12] = Unbound brain-to-plasma concentration ratio in Sprague-Dawley rat at 0.1 to 0.2 mg/kg, iv measured after 0.25 hrs; type: ADME, organism-based; conditions: dose 0.1-0.2 mg/kg, read-out: K(p,uu,brain)
[13] = Hepatic clearance in human; type: ADME
[14] = biological target: T4, Muscarinic acetylcholine receptor M2; test: Positive allosteric modulation of human M2 receptor/Gqi5 in presence of EC20 acetylcholine by calcium mobilization assay relative to acetylcholine; conditions: read-out: %max

| Compound | Activity [1] | %max [2] [%] | EC50 [3] [nM] | EC50 [4] [nM] | Activity [5] | Activity [6] | Kp at 0.25 h [7] | fraction unbound [8] | fraction unbound [9] | CLH [10] [mL/min/kg] | fraction unbound [11] | Kp uu at 0.25 h [12] | CLH [13] [mL/min/kg] | Emax [14] [%] |
| --- | --- | --- | --- | --- | --- | --- | --- | --- | --- | --- | --- | --- | --- | --- |
| Cc1nc(Cl)c(C)c(N2CC(NC(=O)c3sc4nnc(Cl)c(C)c4c3N)C2)n1 | inactive | 84 | 100 | > 30000 | inactive | inactive | – | – | – | – | – | – | – | – |
| CCc1nnc2sc(C(=O)NC3CN(c4ncc(C(F)(F)F)cn4)C3)c(N)c2c1C | inactive | 77 | 510 | > 30000 | inactive | inactive | – | – | – | – | – | – | – | – |
| Cc1c(Cl)nnc2sc(C(=O)NC3CN(c4ccc(C5CC5)nn4)C3)c(N)c12 | inactive | 94 | 120 | > 5000 | inactive | inactive | – | – | – | – | – | – | – | 43 |
| Cc1cc(C2CC2)ncc1N1CC(NC(=O)c2sc3nnc(Cl)c(C)c3c2N)C1 | inactive | 90 | 150 | 870 | inactive | inactive | – | – | – | – | – | – | – | 33 |
| Cc1c(Cl)nnc2sc(C(=O)NC3CN(c4ncncc4C#N)C3)c(N)c12 | inactive | 65 | 220 | > 30000 | inactive | inactive | – | – | – | – | – | – | – | – |
| Cc1c(Cl)nnc2sc(C(=O)NC3CN(c4cnc(Cl)cn4)C3)c(N)c12 | inactive | 99 | 140 | 400 | inactive | inactive | – | – | – | – | – | – | – | 40 |
| Cc1c(Cl)nnc2sc(C(=O)NC3CN(c4ncc(C(F)(F)F)cn4)C3)c(N)c12 | inactive | 78 | 60 | > 30000 | inactive | inactive | 0.1 | 0.037 | 0.022 | 51.9 | 0.022 | 0.17 | – | – |
| Cc1c(O)nnc2sc(C(=O)NC3Cc4ccccc4C3)c(N)c12 | – | 71 | 290 | – | – | – | – | – | – | – | – | – | – | – |
| Cc1c(C(C)C)nnc2sc(C(=O)NC3CN(c4ncc(C(F)(F)F)cn4)C3)c(N)c12 | inactive | 56 | 540 | > 30000 | inactive | inactive | – | – | – | – | – | – | – | – |
| Cc1c(Cl)nnc2sc(C(=O)NC3CN(c4nnc(CC(C)C)o4)C3)c(N)c12 | inactive | 47 | 230 | > 10000 | inactive | inactive | – | – | – | – | – | – | – | 62 |
| Cc1c(O)nnc2sc(C(=O)NC3CN(c4ncc(C(F)(F)F)cn4)C3)c(N)c12 | inactive | 45 | 6720 | > 30000 | inactive | inactive | – | – | – | – | – | – | – | – |
| Cc1c(Cl)nnc2sc(C(=O)NC3CN(c4ccnc(F)c4Cl)C3)c(N)c12 | inactive | 72 | 70 | > 30000 | inactive | inactive | – | – | – | – | – | – | – | – |
| Cc1c(CN(C)C)nnc2sc(C(=O)NC3CN(c4ncc(C(F)(F)F)cn4)C3)c(N)c12 | inactive | – | > 30000 | > 30000 | inactive | inactive | – | – | – | – | – | – | – | – |
| Cc1cnnc2sc(C(=O)NC3Cc4ccccc4C3)c(N)c12 | – | 81 | 60 | – | – | – | – | – | – | – | – | – | – | – |
| COCCOc1nnc2sc(C(=O)NC3CN(c4ncc(C(F)(F)F)cn4)C3)c(N)c2c1C | inactive | 48 | 180 | > 30000 | inactive | inactive | – | – | – | – | – | – | – | – |
| Cc1c(CF)nnc2sc(C(=O)NC3CN(c4ncc(C(F)(F)F)cn4)C3)c(N)c12 | inactive | 73 | 170 | > 30000 | inactive | inactive | 0.06 | 0.085 | 0.034 | 23.7 | 0.042 | 0.15 | 10.8 | – |
| Cc1c(CO)nnc2sc(C(=O)NC3CN(c4ncc(C(F)(F)F)cn4)C3)c(N)c12 | inactive | 75 | 1170 | > 30000 | inactive | inactive | – | – | – | – | – | – | – | – |

Stronger by EC50 [3], values ahead:

| Activity [1] | %max [2] [%] | EC50 [3] [nM] | EC50 [4] [nM] | Activity [5] | Activity [6] | Kp at 0.25 h [7] | fraction unbound [8] | fraction unbound [9] | CLH [10] [mL/min/kg] | fraction unbound [11] | Kp uu at 0.25 h [12] | CLH [13] [mL/min/kg] | Emax [14] [%] | Compound |
| --- | --- | --- | --- | --- | --- | --- | --- | --- | --- | --- | --- | --- | --- | --- |
| inactive | 52 | 10 | > 30000 | inactive | inactive | 0.21 | 0.01 | 0.005 | 15.3 | < 0.001 | 0.42 | 11.7 | – | COc1cc(N2CC(NC(=O)c3sc4nnc(Cl)c(C)c4c3N)C2)c(Cl)cn1 |
| – | 83 | 20 | – | – | – | – | – | – | – | – | – | – | – | COc1nnc2sc(C(=O)NC3Cc4ccccc4C3)c(N)c2c1C |
| – | 73 | 10 | – | – | – | – | – | – | – | – | – | – | – | Cc1c(Cl)nnc2sc(C(=O)NC3Cc4ccccc4C3)c(N)c12 |
| inactive | 59 | 30 | > 30000 | inactive | inactive | – | – | – | – | – | – | – | – | Cc1c(Cl)nnc2sc(C(=O)NC3CN(c4cc(Cl)ncc4Cl)C3)c(N)c12 |
| – | 79 | 20 | – | – | – | – | – | – | – | – | – | – | – | Cc1nnc2sc(C(=O)NC3Cc4ccccc4C3)c(N)c2c1C |
| inactive | 90 | 20 | > 10000 | inactive | inactive | 0.31 | 0.01 | 0.019 | 31.7 | 0.019 | 0.16 | 14.7 | 51 | Cc1c(Cl)nnc2sc(C(=O)NC3CN(c4cc(C(F)(F)F)ncc4Cl)C3)c(N)c12 |
| inactive | 86 | 20 | 1100 | inactive | inactive | – | – | – | – | – | – | – | 64 | Cc1c(Cl)nnc2sc(C(=O)NC3CN(c4cccnc4)C3)c(N)c12 |
